Test results taken from the NIST ThermoML archive (doi:10.1016/j.jct.2017.06.020).
Numbers after ± are expanded uncertainties.

What was measured:
[1] = 298.15 K; 101.3 kPa; Liquid; Vibrating tube method
[2] = refractive index (Na D-line) (dimensionless); conditions: 298.15 K; 101.3 kPa; Liquid; Standard Abbe refractometry
[3] = relative permittivity at various frequencies (dimensionless); conditions: 298.15 K; 101.3 kPa; Liquid; Frequency=0.01 MHz; Coaxial cylinder capacitor
[4] = refractive index (Na D-line) (dimensionless); xn = mol fraction of the nth substance listed; conditions: 298.15 K, 101.3 kPa, Liquid, Standard Abbe refractometry
[5] = relative permittivity at various frequencies (dimensionless); xn = mol fraction of the nth substance listed; conditions: 298.15 K, 101.3 kPa, Liquid, Frequency=0.01 MHz, Coaxial cylinder capacitor

CC(C)CCO [3-methylbutan-1-ol]
Conditions	mass density [kg/m3]	refractive index	relative permittivity
[1]	807.16 ± 3.2	–	–
[2]	–	1.4048 ± 0.0011	–
[3]	–	–	14.96 ± 0.04

CC(C)CCO [3-methylbutan-1-ol] + CC(=O)c1ccccc1
x2 = 0
Conditions	refractive index	relative permittivity
[4]	1.4048 ± 0.0011	–
[5]	–	14.96 ± 0.04

CC(C)CCO [3-methylbutan-1-ol] + CC(C)=O
Conditions	refractive index, [4]	relative permittivity, [5]
x2 = 0	1.4048 ± 0.0011	14.96 ± 0.04
x2 = 0.1	1.4016 ± 0.0011	14.72 ± 0.04
x2 = 0.2	1.3981 ± 0.0011	14.62 ± 0.04
x2 = 0.3	1.3936 ± 0.0011	14.71 ± 0.04
x2 = 0.4	1.3893 ± 0.0011	14.96 ± 0.04
x2 = 0.5	1.3854 ± 0.0011	15.44 ± 0.04
x2 = 0.6	1.3799 ± 0.0011	16.08 ± 0.04
x2 = 0.7	1.3751 ± 0.001	16.95 ± 0.04
x2 = 0.8	1.3701 ± 0.001	17.99 ± 0.05
x2 = 0.9	1.3634 ± 0.0011	19.21 ± 0.05

CC(C)CCO [3-methylbutan-1-ol] + CCC(C)=O
Conditions	refractive index, [4]	relative permittivity, [5]
x2 = 0	1.4048 ± 0.0011	14.96 ± 0.04
x2 = 0.099	1.4024 ± 0.0011	14.59 ± 0.04
x2 = 0.2	1.4001 ± 0.0011	14.38 ± 0.04
x2 = 0.3	1.3972 ± 0.0011	14.33 ± 0.04
x2 = 0.4	1.3948 ± 0.0011	14.44 ± 0.04
x2 = 0.499	1.392 ± 0.0011	14.69 ± 0.04
x2 = 0.599	1.3891 ± 0.0011	15.12 ± 0.04
x2 = 0.7	1.3863 ± 0.0011	15.7 ± 0.04
x2 = 0.8	1.3829 ± 0.001	16.43 ± 0.04
x2 = 0.9	1.38 ± 0.001	17.33 ± 0.04

CC(C)CCO [3-methylbutan-1-ol] + C[S+](C)[O-]
Conditions	refractive index, [4]	relative permittivity, [5]
x2 = 0	1.4048 ± 0.0011	14.96 ± 0.04
x2 = 0.1	1.4071 ± 0.0011	15.92 ± 0.05
x2 = 0.2	1.4118 ± 0.0011	17.56 ± 0.06
x2 = 0.3	1.4168 ± 0.0011	19.79 ± 0.06
x2 = 0.4	1.4227 ± 0.0011	22.45 ± 0.07
x2 = 0.5	1.4305 ± 0.0011	25.51 ± 0.08
x2 = 0.6	1.4385 ± 0.0011	28.95 ± 0.08
x2 = 0.7	1.4459 ± 0.0011	32.76 ± 0.09
x2 = 0.8	1.4549 ± 0.0011	37.01 ± 0.1
x2 = 0.9	1.4651 ± 0.0011	41.68 ± 0.11

CC(C)=O [acetone]
Conditions	mass density [kg/m3]	refractive index	relative permittivity
[1]	784.42 ± 3.1	–	–
[2]	–	1.3564 ± 0.001	–
[3]	–	–	20.69 ± 0.04

CC(C)=O [acetone] + CC(C)CCO
x1 = 1
Conditions	refractive index	relative permittivity
[4]	1.3564 ± 0.001	–
[5]	–	20.69 ± 0.04

CC(C)=O [acetone] + CCCCCO
x1 = 1
Conditions	refractive index	relative permittivity
[4]	1.3564 ± 0.001	–
[5]	–	20.69 ± 0.04

CC(=O)c1ccccc1 [acetophenone]
Conditions	mass density [kg/m3]	refractive index	relative permittivity
[1]	1022.77 ± 4.2	–	–
[2]	–	1.5318 ± 0.0011	–
[3]	–	–	17.51 ± 0.04

CC(=O)c1ccccc1 [acetophenone] + CC(C)CCO
Conditions	refractive index, [4]	relative permittivity, [5]
x1 = 0.101	1.418 ± 0.0011	14.65 ± 0.04
x1 = 0.199	1.4303 ± 0.0011	14.47 ± 0.04
x1 = 0.301	1.4451 ± 0.0011	14.39 ± 0.04
x1 = 0.4	1.4573 ± 0.0011	14.45 ± 0.04
x1 = 0.5	1.4709 ± 0.0011	14.66 ± 0.04
x1 = 0.6	1.4817 ± 0.0011	14.97 ± 0.04
x1 = 0.699	1.4935 ± 0.0011	15.44 ± 0.04
x1 = 0.8	1.5063 ± 0.0011	16.03 ± 0.04
x1 = 0.9	1.5187 ± 0.0011	16.71 ± 0.04
x1 = 1	1.5318 ± 0.0011	17.51 ± 0.04
